Data as given in patent publication US10189841B2, “Purinones as ubiquitin-specific protease 1 inhibitors” (Forma Therapeutics, Inc., priority 2015, dated 2019).

What follows are compounds tested against USP1 (construct USP1 (I-785, GG670, 671AA)/UAF1 (I-677)-Flag) (Homo sapiens (Human), UniProt O94782, G670A/G671A) (assay: Ubiquitin-Rhodamine 110 assay for USP1 activity). Conditions: USP1/UAF1 25 pM, Ub-Rh110 25 nM, 30 min preincubation.
USP1 (construct USP1 (I-785, GG670, 671AA)/UAF1 (I-677)-Flag), sequence (O94782 whole entry G670A/G671A): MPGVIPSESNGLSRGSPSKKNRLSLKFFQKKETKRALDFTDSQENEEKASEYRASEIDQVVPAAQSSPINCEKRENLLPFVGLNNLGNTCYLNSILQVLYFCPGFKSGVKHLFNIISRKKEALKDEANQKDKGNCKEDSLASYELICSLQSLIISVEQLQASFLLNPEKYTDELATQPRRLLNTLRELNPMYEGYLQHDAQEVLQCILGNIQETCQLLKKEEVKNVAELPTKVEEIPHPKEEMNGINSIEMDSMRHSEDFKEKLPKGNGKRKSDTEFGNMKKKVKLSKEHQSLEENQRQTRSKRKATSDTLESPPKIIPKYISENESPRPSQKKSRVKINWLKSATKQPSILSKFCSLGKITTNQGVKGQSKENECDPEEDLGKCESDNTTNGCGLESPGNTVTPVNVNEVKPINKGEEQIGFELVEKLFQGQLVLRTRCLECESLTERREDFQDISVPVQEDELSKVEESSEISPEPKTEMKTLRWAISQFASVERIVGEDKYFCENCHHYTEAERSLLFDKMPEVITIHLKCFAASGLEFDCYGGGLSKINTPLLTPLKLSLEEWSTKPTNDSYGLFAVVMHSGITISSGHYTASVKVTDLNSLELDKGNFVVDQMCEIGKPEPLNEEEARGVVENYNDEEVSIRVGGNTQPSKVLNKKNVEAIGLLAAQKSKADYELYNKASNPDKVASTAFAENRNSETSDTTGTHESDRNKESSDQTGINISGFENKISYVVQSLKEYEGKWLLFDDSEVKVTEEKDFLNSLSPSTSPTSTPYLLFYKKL
USP1 (construct USP1 (I-785, GG670, 671AA)/UAF1 (I-677)-Flag), sequence (Q8TAF3 whole entry partner): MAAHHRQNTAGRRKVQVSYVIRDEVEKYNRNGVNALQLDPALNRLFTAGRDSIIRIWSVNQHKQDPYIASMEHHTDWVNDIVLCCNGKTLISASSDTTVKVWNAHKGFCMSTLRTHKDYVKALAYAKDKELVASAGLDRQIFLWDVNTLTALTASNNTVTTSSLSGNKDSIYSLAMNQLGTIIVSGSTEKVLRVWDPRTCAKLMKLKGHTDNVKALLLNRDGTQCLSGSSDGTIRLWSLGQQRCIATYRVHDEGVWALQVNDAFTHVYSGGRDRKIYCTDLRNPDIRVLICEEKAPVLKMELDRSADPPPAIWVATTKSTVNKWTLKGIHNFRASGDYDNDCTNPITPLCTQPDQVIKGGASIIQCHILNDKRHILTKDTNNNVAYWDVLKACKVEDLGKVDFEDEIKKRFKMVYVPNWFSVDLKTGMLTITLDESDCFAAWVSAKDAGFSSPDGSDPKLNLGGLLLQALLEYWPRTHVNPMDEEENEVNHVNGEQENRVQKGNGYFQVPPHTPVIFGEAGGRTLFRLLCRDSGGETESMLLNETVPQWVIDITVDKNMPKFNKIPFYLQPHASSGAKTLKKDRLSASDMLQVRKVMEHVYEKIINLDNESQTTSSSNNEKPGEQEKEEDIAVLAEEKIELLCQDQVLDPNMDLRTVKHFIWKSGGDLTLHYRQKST
Assay type: biochemical
Procedure, shortened: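 Two formats with the USP1/UAF1 complex and 25 nM ubiquitin-rhodamine 110 in pH 8.0 Tris buffer with calcium, glutathione and detergent. Single-point screening used 10 µM, 100 pM enzyme and 45 min. Inhibition was set against no-enzyme and DMSO wells.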
`CC(C)c1ccccc1-c1ncc2[nH]c(=O)n(Cc3ccc(-n4c(=O)ccn4C)cc3)c2n1` [Compound I-205, 2-(2-isopropylphenyl)-9-(4-(2-methyl-5-oxo-2,5-dihydro-1H-pyrazol-1-yl)benzyl)-7,9-dihydro-8H-purin-8-one] showed an IC50 of 50 to 200 nM.
In the case of `COc1ccnn1-c1ccc(Cn2c(=O)[nH]c3cnc(-c4ccccc4C(C)C)nc32)cc1` [Compound I-206, 2-(2-isopropylphenyl)-9-(4-(5-methoxy-1H-pyrazol-1-yl)benzyl)-7,9-dihydro-8H-purin-8-one], the IC50 is reported as under 50 nM.
In the case of `Cc1cc(C#N)nn1-c1ccc(Cn2c(=O)[nH]c3cnc(-c4ccccc4C(C)C)nc32)cc1` [Compound I-207, 1-(4-((2-(2-isopropylphenyl)-8-oxo-7,8-dihydro-9H-purin-9-yl)methyl)phenyl)-5-methyl-1H-pyrazole-3-carbonitrile], the IC50 is reported as under 50 nM.
Compound `Cc1cc(C#N)n(-c2ccc(Cn3c(=O)[nH]c4cnc(-c5ccccc5C(C)C)nc43)cc2)n1` [Compound I-208, 1-(4-((2-(2-isopropylphenyl)-8-oxo-7,8-dihydro-9H-purin-9-yl)methyl)phenyl)-3-methyl-1H-pyrazole-5-carbonitrile] has an IC50 of under 50 nM.
For `CC(C)c1ccccc1-c1ncc2[nH]c(=O)n(Cc3ccc(-c4nc(C(F)(F)F)nn4C)cc3)c2n1` [Compound I-209, 2-(2-isopropylphenyl)-9-(4-(1-methyl-3-(trifluoromethyl)-1H-1,2,4-triazol-5-yl)benzyl)-7,9-dihydro-8H-purin-8-one], the IC50 was under 50 nM.
For `Cc1cc(Cl)nn1-c1ccc(Cn2c(=O)[nH]c3cnc(-c4ccccc4C(C)C)nc32)cc1` [Compound I-210, 9-(4-(3-chloro-5-methyl-1H-pyrazol-1-yl)benzyl)-2-(2-isopropylphenyl)-7,9-dihydro-8H-purin-8-one], the IC50 was under 50 nM.
Compound `Cc1cc(Cl)n(-c2ccc(Cn3c(=O)[nH]c4cnc(-c5ccccc5C(C)C)nc43)cc2)n1` [Compound I-211, 9-(4-(5-chloro-3-methyl-1H-pyrazol-1-yl)benzyl)-2-(2-isopropylphenyl)-7,9-dihydro-8H-purin-8-one] has an IC50 of under 50 nM.
Work on `Cc1cc(C)n([C@H]2CC[C@@H](Cn3c(=O)[nH]c4cnc(-c5ccccc5C(C)C)nc43)CC2)n1` [Compound I-212, 9-(((1s,4s)-4-(3,5-dimethyl-1H-pyrazol-1-yl)cyclohexyl)methyl)-2-(2-isopropylphenyl)-7,9-dihydro-8H-purin-8-one] yielded an IC50 of under 50 nM.
For `Cc1cc(C)n([C@H]2CC[C@H](Cn3c(=O)[nH]c4cnc(-c5ccccc5C(C)C)nc43)CC2)n1` [Compound I-213, 9-(((1r,4r)-4-(3,5-dimethyl-1H-pyrazol-1-yl)cyclohexyl)methyl)-2-(2-isopropylphenyl)-7,9-dihydro-8H-purin-8-one], the IC50 was 200 to 2000 nM.
With `CC(C)c1ccccc1-c1ncc2[nH]c(=O)n([C@H](C)c3ccc(-c4nc(C(F)(F)F)cn4C)cc3)c2n1` [Compound I-214, (R)-2-(2-isopropylphenyl)-9-(1-(4-(1-methyl-4-(trifluoromethyl)-1H-imidazol-2-yl)phenyl)ethyl)-7,9-dihydro-8H-purin-8-one] the IC50 was under 50 nM.
`CC(C)c1ccccc1-c1ncc2[nH]c(=O)n([C@@H](C)c3ccc(-c4nc(C(F)(F)F)cn4C)cc3)c2n1` [Compound I-215, (S)-2-(2-isopropylphenyl)-9-(1-(4-(1-methyl-4-(trifluoromethyl)-1H-imidazol-2-yl)phenyl)ethyl)-7,9-dihydro-8H-purin-8-one] gave an IC50 of under 50 nM.
Compound `CC(C)c1ccccc1-c1ncc2[nH]c(=O)n(Cc3ccc(C4OCC4(C)C)cc3)c2n1` (stereo not shown) [Compound I-216, 9-(4-(3,3-dimethyloxetan-2-yl)benzyl)-2-(2-isopropylphenyl)-7,9-dihydro-8H-purin-8-one] has an IC50 of 50 to 200 nM.
Work on `CC(=O)Nc1cccc(Cn2c(=O)[nH]c3cnc(-c4ccccc4C(C)C)nc32)c1` [Compound I-217, N-(3-((2-(2-isopropylphenyl)-8-oxo-7,8-dihydro-9H-purin-9-yl)methyl)phenyl)acetamide] yielded an IC50 of 200 to 2000 nM.
For `CC(=O)Nc1ccc(Cn2c(=O)[nH]c3cnc(-c4ccccc4C(C)C)nc32)cc1` [Compound I-218, N-(4-((2-(2-isopropylphenyl)-8-oxo-7,8-dihydro-9H-purin-9-yl)methyl)phenyl)acetamide], the IC50 was 200 to 2000 nM.
Work on `CC(C)c1ccccc1-c1ncc2[nH]c(=O)n(Cc3ccc(-c4ncc(C(F)(F)F)n4C)cc3)c2n1` [Compound I-219, 2-(2-isopropylphenyl)-9-(4-(1-methyl-5-(trifluoromethyl)-1H-imidazol-2-yl)benzyl)-7,9-dihydro-8H-purin-8-one] yielded an IC50 of under 50 nM.
`CC(C)c1ccccc1-c1ncc2[nH]c(=O)n(CC3(F)CCN(C(=O)OC(C)(C)C)CC3)c2n1` [Compound I-220, tert-butyl 4-fluoro-4-((2-(2-isopropylphenyl)-8-oxo-7,8-dihydro-9H-purin-9-yl)methyl)piperidine-1-carboxylate] showed an IC50 of 50 to 200 nM.
For `CC(C)c1ccccc1-c1ncc2[nH]c(=O)n(Cc3ccc(-n4cc(C5CCNCC5)cn4)cc3)c2n1` [Compound I-221, 2-(2-isopropylphenyl)-9-(4-(4-(piperidin-4-yl)-1H-pyrazol-1-yl)benzyl)-7,9-dihydro-8H-purin-8-one], the IC50 was 200 to 2000 nM.
`CC(C)c1ccccc1-c1ncc2[nH]c(=O)n(Cc3ccc(-n4ccc(C5CCNC5)n4)cc3)c2n1` (stereo not shown) [Compound I-222, 2-(2-isopropylphenyl)-9-(4-(3-(pyrrolidin-3-yl)-1H-pyrazol-1-yl)benzyl)-7,9-dihydro-8H-purin-8-one] showed an IC50 of 200 to 2000 nM.
`CC(C)c1ccccc1-c1ncc2[nH]c(=O)n(Cc3ccc(-n4ccc(C5CCCNC5)n4)cc3)c2n1` (stereo not shown) [Compound I-223, 2-(2-isopropylphenyl)-9-(4-(3-(piperidin-3-yl)-1H-pyrazol-1-yl)benzyl)-7,9-dihydro-8H-purin-8-one] was tested, and the IC50 was 50 to 200 nM.
`CC(C)c1ccccc1-c1ncc2[nH]c(=O)n(Cc3ccc(-n4ccc([C@@H]5CCCNC5)n4)cc3)c2n1` [Compound I-224, (R)-2-(2-isopropylphenyl)-9-(4-(3-(piperidin-3-yl)-1H-pyrazol-1-yl)benzyl)-7,9-dihydro-8H-purin-8-one] was tested, and the IC50 was 50 to 200 nM.
`CC(C)c1ccccc1-c1ncc2[nH]c(=O)n(C3(c4ccc(-n5cccn5)cc4)CC3)c2n1` [Compound I-226, 9-(1-(4-(1H-pyrazol-1-yl)phenyl)cyclopropyl)-2-(2-isopropylphenyl)-7,9-dihydro-8H-purin-8-one] showed an IC50 of under 50 nM.
For `CC(C)c1ccccc1-c1ncc2[nH]c(=O)n(C3(c4ccc(F)cc4)CC3)c2n1` [Compound I-227, 9-(1-(4-fluorophenyl)cyclopropyl)-2-(2-isopropylphenyl)-7,9-dihydro-8H-purin-8-one], the IC50 was under 50 nM.
`CC(C)c1ccccc1-c1ncc2c(n1)n(Cc1ccc(OCC3CC3)cc1)c(=O)n2C` [Compound I-228, 9-(4-(cyclopropylmethoxy)benzyl)-2-(2-isopropylphenyl)-7-methyl-7,9-dihydro-8H-purin-8-one] showed an IC50 of 50 to 200 nM.
For `CC(C)c1ccccc1-c1ncc2c(n1)n(Cc1ccc(OCC3CCOC3)cc1)c(=O)n2C` (stereo not shown) [Compound I-229, 2-(2-isopropylphenyl)-7-methyl-9-(4-((tetrahydrofuran-3-yl)methoxy)benzyl)-7,9-dihydro-8H-purin-8-one], the IC50 was 50 to 200 nM.
In the case of `CC(C)c1ccccc1-c1ncc2c(n1)n(Cc1ccc(OCC3CCCN(C)C3)cc1)c(=O)n2C` (stereo not shown) [Compound I-230, 2-(2-isopropylphenyl)-7-methyl-9-(4-((1-methylpiperidin-3-yl)methoxy)benzyl)-7,9-dihydro-8H-purin-8-one], the IC50 is reported as 200 to 2000 nM.
With `CC(C)c1ccccc1-c1ncc2c(n1)n(Cc1ccc(OCc3ccccn3)cc1)c(=O)n2C` [Compound I-231, 2-(2-isopropylphenyl)-7-methyl-9-(4-(pyridin-2-ylmethoxy)benzyl)-7,9-dihydro-8H-purin-8-one] the IC50 was under 50 nM.
`CC(C)c1ccccc1-c1ncc2c(n1)n(Cc1ccc(OCc3cncn3C)cc1)c(=O)n2C` [Compound I-232, 2-(2-isopropylphenyl)-7-methyl-9-(4-((1-methyl-1H-imidazol-5-yl)methoxy)benzyl)-7,9-dihydro-8H-purin-8-one] was tested, and the IC50 was 200 to 2000 nM.
Work on `CC(C)c1ccccc1-c1ncc2c(n1)n(Cc1ccc(OCCN(C)C)cc1)c(=O)n2C` [Compound I-233, 9-(4-(2-(dimethylamino)ethoxy)benzyl)-2-(2-isopropylphenyl)-7-methyl-7,9-dihydro-8H-purin-8-one] yielded an IC50 of 50 to 200 nM.
For `CC(C)c1ccccc1-c1ncc2c(n1)n(Cc1ccc(OCCCN(C)C)cc1)c(=O)n2C` [Compound I-234, 9-(4-(3-(dimethylamino)propoxy)benzyl)-2-(2-isopropylphenyl)-7-methyl-7,9-dihydro-8H-purin-8-one], the IC50 was over 2000 nM.
For `Cc1cc(COc2ccc(Cn3c(=O)n(C)c4cnc(-c5ccccc5C(C)C)nc43)cc2)no1` [Compound I-235, 2-(2-isopropylphenyl)-7-methyl-9-(4-((5-methylisoxazol-3-yl)methoxy)benzyl)-7,9-dihydro-8H-purin-8-one], the IC50 was 200 to 2000 nM.
`CCOCCOc1ccc(Cn2c(=O)n(C)c3cnc(-c4ccccc4C(C)C)nc32)cc1` [Compound I-236, 9-(4-(2-ethoxyethoxy)benzyl)-2-(2-isopropylphenyl)-7-methyl-7,9-dihydro-8H-purin-8-one] gave an IC50 of under 50 nM.
`CC(C)c1ccccc1-c1ncc2c(n1)n(Cc1ccc(OC3CCC3)cc1)c(=O)n2C` [Compound I-237, 9-(4-cyclobutoxybenzyl)-2-(2-isopropylphenyl)-7-methyl-7,9-dihydro-8H-purin-8-one] was tested, and the IC50 was 50 to 200 nM.
For `CC(C)c1ccccc1-c1ncc2c(n1)n(Cc1ccc(OC3CCOCC3)cc1)c(=O)n2C` [Compound I-238, 2-(2-isopropylphenyl)-7-methyl-9-(4-((tetrahydro-2H-pyran-4-yl)oxy)benzyl)-7,9-dihydro-8H-purin-8-one], the IC50 was 200 to 2000 nM.
`CC(C)c1ccccc1-c1ncc2c(n1)n(Cc1cccc(OCC3CC3)c1)c(=O)n2C` [Compound I-239, 9-(3-(cyclopropylmethoxy)benzyl)-2-(2-isopropylphenyl)-7-methyl-7,9-dihydro-8H-purin-8-one] showed an IC50 of over 2000 nM.
